Reference: patent US20210046106A1, “METHODS OF TREATING CANCER WITH ANDROGEN DEPRIVATION THERAPY IN COMBINATION WITH AN INHIBITOR OF THE SP1 TRANSCRIPTION FACTOR” (The Board of Trustees of the Leland Stanford Junior …, priority 2019, published 2021)

System: AR and PSA
Test: NAC pretreatment and down-regulation of AR and PSA in LAPC-4 cells
Type: cell-based
Conditions: 10 mmol/L NAC 24 h pretreatment

CC(=O)N[C@@H](CS)C(=O)O [NAC, N-acetylcysteine]
effect of NAC on methylseleninic acid (MSeA)-induced down-regulation of the AR and PSA (then 10 μmol/L MSeA 24 h): does not inhibit
effect of NAC on selenite-induced down-regulation of the AR and PSA (then selenite 24 h): inhibits
